Data taken from patent publication US20210238225A1, “PEPTIDOMIMETIC INHIBITORS OF THE PEPTIDYL-PROLYL CIS/TRANS ISOMERASE (PIN1)” (DANA-FARBER CANCER INSTITUTE, INC., priority 2018, published 2021).
Entries after “also recorded” stand apart in the source; their conditions may differ. Non-standard residues stand in square brackets, D forms with d. Residues, ends and D or L forms follow the SMILES beside them. *: point of attachment. 2Nal = N[C@@H](Cc1ccc2ccccc2c1)C(=O)O; Cit = NC(=O)NCCC[C@H](N)C(=O)O; Pip = O=C(O)[C@@H]1CCCCN1; ClAc = O=C(CCl)*

Tests used:
Pin1 [1] = target: T1, Pin1 (Homo sapiens, UniProt Q13526); test: X-ray crystallography; set-up: A construct of full-length human Pin1 in a pET28 vector; made in house; host or cells: E. coli BL21 (DE3)
T1 sequence (Q13526 whole entry): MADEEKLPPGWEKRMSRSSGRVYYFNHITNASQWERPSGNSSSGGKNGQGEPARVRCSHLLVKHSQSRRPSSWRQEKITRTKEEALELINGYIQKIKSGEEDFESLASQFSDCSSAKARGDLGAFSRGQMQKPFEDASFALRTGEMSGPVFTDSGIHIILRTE
Method: A construct of full-length human Pin1 in a pET28 vector was overexpressed in E. coli BL21 (DE3) in LB medium in the presence of […] of kanamycin. Cells were grown at 37° C. to an OD of 0.8, cooled to 17° C., induced with 500 μM isopropyl-1-thio-D-galactopyranoside, incubated overnight at 17° C., collected by centrifugation, and stored at −80° C. Cell pellets were sonicated in buffer A (50 mM hepes 7.5, 300 mM NaCl, 10% glycerol, 10 mM Imidazole, and 3 mM 2-mercaptoethanol (BME) and the resulting lysate was centrifuged at 30,000×g for 40 min. Ni-NTA beads (Qiagen) were mixed with lysate supernatant for 30 min and washed with buffer A. Beads were transferred to an FPLC-compatible column and the bound protein was washed with 15% buffer B (50 mM hepes 7.5, 300 mM NaCl, 10% glycerol, 300 mM imidazole, and 3 mM BME) and eluted with 100% buffer B. Thrombin was added to the eluted protein and incubated at 4° C. overnight. The sample was concentrated and passed through a Superdex® 200 10/300 column (GE healthcare) in a buffer containing 20 mM hepes 7.5, 150 mMNaCl, 5% glycerol, 3 mM DTT, and 1 mM tris(2-carboxyethyl)phosphine (TCEP). Fractions were pooled, concentrated to approximately 37 mg/ml and frozen at −80° C.
Apo protein at a final concentration of 1 mM was crystallized by sitting-drop (200 nL+200 nL) vapor diffusion at 20° C. in the following crystallization buffer: 3 M (NH4)2SO4, 100 mM BisTris-pH 7.0, 1% PEG400, and 1 mM DTT. A volume of 200 nL of 1 mM compound 2b-6 was added directly to crystals for soaking at 20° C. for 16 hrs. Crystals were transferred briefly into crystallization buffer containing 25% glycerol prior to flash-freezing in liquid nitrogen.
Diffraction data from complex crystals were collected at beamline 24ID-E of the NE-CAT at the Advanced Photon Source (Argonne National Laboratory). Data sets were integrated and scaled using XDS (Kabsch, Acta Crystallogr. D Biol. Crystallogr. D66: 133-144 (2010)). […]

Pin1 Cys 113 = Pin1 Cys 113 (Homo sapiens, UniProt Q13526); test: Covalent labeling (intact MS); assay type: binding; conditions: for Covalent? (In tact MS), % labeling: purified Pin1 with 5 μM inhibitor, 0-3 hr
Chain of Pin1 Cys 113 (Q13526 whole entry): as above
Method: 5 μg of purified Pin1 protein in 50 μL of 20 mM HEPES pH 7.5 and 75 mM NaCl was incubated with 5 μM of respective Pin1 inhibitors for 0-3 hr. A Shimadzu XR HPLC was used to inject the entire sample onto a self-packed reverse-phase column (1/32 in outer diameter×500 μm inner diameter, 5 cm of POROS 50R2 resin). After desalting, protein was eluted with an HPLC gradient (0%-100% B in 4 min, A=0.2 M acetic acid in water, B=0.2 M acetic acid in acetonitrile, flow rate=10 μl/min) into a LTQ XL mass spectrometer (Thermo Fisher Scientific, San Jose, Calif., USA). LTQ XL MS spectra were acquired in centroid mode using the electron multipliers for ion detection. Mass spectra were deconvoluted using MagTran1.03b2 software (Zhang and Marshall, J. Am. Soc. Mass Spectrom. 9:225-233 (1998)).

Pin1 (GST-Pin1) = Pin1 (GST-Pin1) (Homo sapiens, UniProt Q13526); test: Chymotrypsin-coupled PPIase assay, inhibition of isomerase activity; assay type: biochemical; conditions: 12 hours pre-incubation at 4° C.; Cheng-Prusoff equation; read-out: Ki, μM (PPlase Assay)
Chain of Pin1 (GST-Pin1) (Q13526 whole entry): as above
Method: Inhibition of Pin1 isomerase activity was determined using the chymotrypsin-coupled PPIase assay, using GST-Pin1 and Suc-Ala-pSer-Pro-Phe-pNA peptide substrate ([…]), as described previously (Yaffe et al., Science 275:1957-1960 (1997)). GST-Pin1 was pre-incubated with the indicated concentrations of compound for 12 hours at 4° C. in buffer containing 35 mM HEPES (pH 7.8), 0.2 mM DTT, and 0.1 mg/mL bovine serum albumin (BSA). Immediately before the assay was started, chymotrypsin (final concentration 6 mg/mL), followed by the peptide substrate (Suc-Ala-pSer-Pro-Phe-pNA peptide substrate, final concentration […]) was added. The Ki value obtained from the PPIase assay was derived from the Cheng-Prusoff equation, Ki=IC50/(1+S/Km), where Km is the Michaelis constant for the used substrate, S is the initial concentration of the substrate in the assay, and IC50 is the […] inhibitory concentration of the inhibitor.

Pin1 [2] = target: T1, Pin1; test: Lysate target engagement (pull down with biotinylated probes; competition assay); assay type: binding; set-up: endogenous in cells; host or cells: MDA-MB-231; conditions: for Lysate Target Engagement?: TNBC-MDA-MB-231 lysate, biotin/dtb probes: pull down, others: competition, concentration under E5
Method: (§1) TNBC-MDA-MB-231 cells were lysed in lysis buffer (50 mM Hepes pH 7.5, 150 mM NaCl, 1 mM ethylenediaminetetraacetic acid (EDTA), 10% v/v glycerol, 0.5% v/v NP-40, protease inhibitors (Roche)). After clarifying by centrifugation (14,000 rpm for 15 min at 4° C.), lysates were incubated with the indicated concentrations of candidate compound for 1 hour at 4° C. (500 μg of protein per sample, as determined by BCA). Lysates were then incubated with streptavidin agarose resin (30 μL of 1:1 beads: lysis buffer slurry) (Thermo Scientific™, cat. #20349) for 2 hours at 4° C. Beads were washed 4 times with 500 μL of washing buffer (50 mM Hepes, pH 7.5, 10 mM NaCl, 1 mM EDTA, 10% glycerol), then pelleted by centrifugation and dried. The beads were then boiled at 95° C. for 5 minutes in 30 μL of 2× LDS+10% β-mercaptoethanol. Lysates were probed for specified proteins by western blotting using the Bolt system (Life Technologies™).
as §1, with “mM EDTA,” for “mM ethylenediaminetetraacetic acid (EDTA),”, “by centrifugation,” for “by centrifugation (14,000 rpm for 15 min at 4° C.),”, “were pre-incubated” for “were incubated”, “of” for “of candidate”, “compound 18 overnight” for “compound for 1 hour”, “BCA). The lysates were then incubated with 1 μM of compound 2c (desthiobiotin probe) for 1 hour at 4° C.” for “BCA).”

Structure (SMILES) | X-Ray Crystal Structure? (Pin1 [1]) | Covalent? (In tact MS), % labeling (Pin1 Cys 113) | Ki (Pin1 (GST-Pin1)) [µM] | Lysate Target Engagement? (Pin1 [2]) | binding mode in x-ray co-crystal structure (FIG. 4A) (Pin1 [1]; 1.8 A resolution, crystal soaking) | Pin1 covalent labeling time course (FIG. 3A) (Pin1 Cys 113; over the course of 60 minutes) | Lysate Target Engagement? concentration stated for the engagement or pull down (Pin1 [2]; read with the E4 line of the same compound (complete, partial, probe pull down))
NC(=O)CC[C@H](NC(=O)[C@H](Cc1ccc2ccccc2c1)NC(=O)[C@@H]1CCCCN1C(=O)[C@H](CCC(=O)O)NC(=O)CCl)C(N)=O [Compound 2b-3, (S)-4-(2-Chloroacetamido)-5-((S)-2-(((S)-1-(((S)-1,5-diamino-1,5-dioxopentan-2-yl)amino)-3-(naphthalen-2-yl)-1-oxopropan-2-yl)carbamoyl)piperidin-1-yl)-5-oxopentanoic acid] (ClAc-E[Pip][2Nal]Q-NH2) | Yes | Yes (81% |  |  |  |  | 
N=C(N)NCCC[C@H](NC(=O)[C@H](Cc1ccc2ccccc2c1)NC(=O)[C@@H]1CCCCN1C(=O)[C@H](CCC(=O)O)NC(=O)CCl)C(N)=O [Compound 2b-6, (S)-5-((S)-2-(((S)-1-(((S)-1-Amino-5-guanidino-1-oxopentan-2-yl)amino)-3-(naphthalen-2-yl)-1-oxopropan-2-yl)carbamoyl)piperidin-1-yl)-4-(2-chloroacetamido)-5-oxopentanoic acid] (ClAc-E[Pip][2Nal]R-NH2) | Yes | Yes (100% | 0.04 | No | covalently bound to Pin1; also recorded: covalently bound to Cys113 in the PPIase active site | rapidly labeled Pin1 Cysl 13 | 
NC(=O)NCCC[C@H](NC(=O)[C@H](Cc1ccc2ccccc2c1)NC(=O)[C@@H]1CCCCN1C(=O)[C@H](CCC(=O)O)NC(=O)CCl)C(N)=O [Compound 2b-13, (S)-5-((S)-2-(((S)-1-(((S)-1-Amino-1-oxo-5-ureidopentan-2-yl)amino)-3-(naphthalen-2-yl)-1-oxopropan-2-yl)carbamoyl)piperidin-1-yl)-4-(2-chloroacetamido)-5-oxopentanoic acid] (ClAc-E[Pip][2Nal][Cit]-NH2) |  |  | 0.021 | Yes-Complete |  |  | at 10 μM
